Source: PubChem BioAssay AID1963435 (Molecular Pharmacology Branch, DTP, NCI, 2024)
Values belong to the compound of their own block, whether it stands above or below them.

Tested on: PANC-1 complex spheroid growth, percent test/control
Assay: Anticancer human tumor PANC-1 cell line growth inhibition [Asc];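 further: spheroids exposed to agents for 7 days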;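 on viability, T/C: percent viability relative to DMSO vehicle wells taken as 100%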
Conditions: for IC50: curve of first compound; for viability, T/C: stronger effect = lower value
Summary of the method: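 Stromal components (HUVEC and hMSC) are co-assembled with the cancer cells into multicellular spheroids. Drugs are then added singly or paired, at concentrations falling by half-log increments from a clinically achievable maximum, capped at 10 microM without known Cmax.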

[1] = second compound 0.00316 µM, first compound 0.0316 µM
[2] = second compound 0.00316 µM, first compound 0.1 µM
[3] = second compound 0.00316 µM, first compound 0.316 µM
[4] = second compound 0.00316 µM, first compound 1 µM
[5] = second compound 0.00316 µM, first compound 3.16 µM
[6] = second compound 0.00316 µM, first compound 10 µM
[7] = second compound 0.01 µM, first compound 0.0316 µM
[8] = second compound 0.01 µM, first compound 0.1 µM
[9] = second compound 0.01 µM, first compound 0.316 µM
[10] = second compound 0.01 µM, first compound 1 µM
[11] = second compound 0.01 µM, first compound 3.16 µM
[12] = second compound 0.01 µM, first compound 10 µM
[13] = second compound 0.0316 µM, first compound 0.0316 µM
[14] = second compound 0.0316 µM, first compound 0.1 µM
[15] = second compound 0.0316 µM, first compound 0.316 µM
[16] = second compound 0.0316 µM, first compound 1 µM
[17] = second compound 0.0316 µM, first compound 3.16 µM
[18] = second compound 0.0316 µM, first compound 10 µM
[19] = second compound 0.1 µM, first compound 0.0316 µM
[20] = second compound 0.1 µM, first compound 0.1 µM
[21] = second compound 0.1 µM, first compound 0.316 µM
[22] = second compound 0.1 µM, first compound 1 µM
[23] = second compound 0.1 µM, first compound 3.16 µM
[24] = second compound 0.1 µM, first compound 10 µM
[25] = second compound 0.316 µM, first compound 0.0316 µM
[26] = second compound 0.316 µM, first compound 0.1 µM
[27] = second compound 0.316 µM, first compound 0.316 µM
[28] = second compound 0.316 µM, first compound 1 µM
[29] = second compound 0.316 µM, first compound 3.16 µM
[30] = second compound 0.316 µM, first compound 10 µM
[31] = second compound 1 µM, first compound 0.0316 µM
[32] = second compound 1 µM, first compound 0.1 µM
[33] = second compound 1 µM, first compound 0.316 µM
[34] = second compound 1 µM, first compound 1 µM
[35] = second compound 1 µM, first compound 3.16 µM
[36] = second compound 1 µM, first compound 10 µM

IC50 (second compound 0.00316 µM): > 10 µM | IC50 (second compound 0.01 µM): > 10 µM | IC50 (second compound 0.0316 µM): > 10 µM | IC50 (second compound 0.1 µM): > 10 µM | IC50 (second compound 0.316 µM): > 10 µM | IC50 (second compound 1 µM): > 10 µM
SMILES: C#Cc1c(F)ccc2cc(O)cc(-c3ncc4c(N5CC6CCC(C5)N6)nc(OCC56CCCN5CC(F)C6)nc4c3F)c12 (stereo not drawn) + CNC(C)C(=O)NC1CN(S(=O)(=O)c2cccc(S(=O)(=O)N3CCC4CCC(C(=O)NC(c5ccccc5)c5ccccc5)N4C(=O)C(NC(=O)C(C)NC)C3)c2)CCC2CCC(C(=O)NC(c3ccccc3)c3ccccc3)N2C1=O
viability, T/C [1]: 93.3% | viability, T/C [2]: 85.7% | viability, T/C [3]: 88% | viability, T/C [4]: 85.6% | viability, T/C [5]: 91% | viability, T/C [6]: 78% | viability, T/C [7]: 91.6% | viability, T/C [8]: 81.9% | viability, T/C [9]: 89.2% | viability, T/C [10]: 76.4% | viability, T/C [11]: 86.5% | viability, T/C [12]: 78.7% | viability, T/C [13]: 88.9% | viability, T/C [14]: 77.8% | viability, T/C [15]: 76.6% | viability, T/C [16]: 82% | viability, T/C [17]: 79.7% | viability, T/C [18]: 70.1% | viability, T/C [19]: 90.8% | viability, T/C [20]: 85.2% | viability, T/C [21]: 85.6% | viability, T/C [22]: 73.7% | viability, T/C [23]: 78.8% | viability, T/C [24]: 75.4% | viability, T/C [25]: 83% | viability, T/C [26]: 81.8% | viability, T/C [27]: 77.1% | viability, T/C [28]: 76.4% | viability, T/C [29]: 79.6% | viability, T/C [30]: 70.3% | viability, T/C [31]: 90.1% | viability, T/C [32]: 82.2% | viability, T/C [33]: 77.1% | viability, T/C [34]: 80.4% | viability, T/C [35]: 77.8% | viability, T/C [36]: 69.2%

IC50 (second compound 0.00316 µM): 5.52 µM | IC50 (second compound 0.01 µM): 5.29 µM | IC50 (second compound 0.0316 µM): 5.31 µM | IC50 (second compound 0.1 µM): 5.4 µM | IC50 (second compound 0.316 µM): 2.64 µM | IC50 (second compound 1 µM): 4.05 µM
SMILES: C=C(F)C(=O)N1CCN(c2nc(OCC3CCCN3C)nc3c2CCN(c2cccc4cccc(Cl)c24)C3)CC1CC#N (stereo not drawn) + CNC(C)C(=O)NC1CN(S(=O)(=O)c2cccc(S(=O)(=O)N3CCC4CCC(C(=O)NC(c5ccccc5)c5ccccc5)N4C(=O)C(NC(=O)C(C)NC)C3)c2)CCC2CCC(C(=O)NC(c3ccccc3)c3ccccc3)N2C1=O
viability, T/C [1]: 99.5% | viability, T/C [2]: 99.1% | viability, T/C [3]: 101% | viability, T/C [4]: 92.4% | viability, T/C [5]: 91.6% | viability, T/C [6]: 5.56% | viability, T/C [7]: 95.6% | viability, T/C [8]: 92.4% | viability, T/C [9]: 92.4% | viability, T/C [10]: 100% | viability, T/C [11]: 85.1% | viability, T/C [12]: 6.24% | viability, T/C [13]: 88.1% | viability, T/C [14]: 86.8% | viability, T/C [15]: 107% | viability, T/C [16]: 91.8% | viability, T/C [17]: 86.8% | viability, T/C [18]: 5.07% | viability, T/C [19]: 90.5% | viability, T/C [20]: 102% | viability, T/C [21]: 90.3% | viability, T/C [22]: 99.3% | viability, T/C [23]: 87.6% | viability, T/C [24]: 6.55% | viability, T/C [25]: 89.2% | viability, T/C [26]: 92.4% | viability, T/C [27]: 96.2% | viability, T/C [28]: 95.1% | viability, T/C [29]: 41.9% | viability, T/C [30]: 4.83% | viability, T/C [31]: 84.8% | viability, T/C [32]: 91.3% | viability, T/C [33]: 93.4% | viability, T/C [34]: 95.4% | viability, T/C [35]: 63.1% | viability, T/C [36]: 2.3%

IC50 (second compound 0.00316 µM): > 10 µM | IC50 (second compound 0.01 µM): > 10 µM | IC50 (second compound 0.0316 µM): > 10 µM | IC50 (second compound 0.1 µM): > 10 µM | IC50 (second compound 0.316 µM): > 10 µM | IC50 (second compound 1 µM): > 10 µM
SMILES: C=CC(=O)N1CCN(c2nc(=O)n(-c3c(C)ccnc3C(C)C)c3nc(-c4c(O)cccc4F)c(F)cc23)C(C)C1 (stereo not drawn) + CNC(C)C(=O)NC1CN(S(=O)(=O)c2cccc(S(=O)(=O)N3CCC4CCC(C(=O)NC(c5ccccc5)c5ccccc5)N4C(=O)C(NC(=O)C(C)NC)C3)c2)CCC2CCC(C(=O)NC(c3ccccc3)c3ccccc3)N2C1=O
viability, T/C [1]: 103% | viability, T/C [2]: 88.3% | viability, T/C [3]: 103% | viability, T/C [4]: 92.3% | viability, T/C [5]: 118% | viability, T/C [6]: 97.5% | viability, T/C [7]: 100% | viability, T/C [8]: 92.8% | viability, T/C [9]: 102% | viability, T/C [10]: 97% | viability, T/C [11]: 101% | viability, T/C [12]: 95% | viability, T/C [13]: 91.2% | viability, T/C [14]: 94.1% | viability, T/C [15]: 102% | viability, T/C [16]: 95.8% | viability, T/C [17]: 105% | viability, T/C [18]: 93.3% | viability, T/C [19]: 102% | viability, T/C [20]: 96.2% | viability, T/C [21]: 100% | viability, T/C [22]: 100% | viability, T/C [23]: 89.7% | viability, T/C [24]: 88.6% | viability, T/C [25]: 98.2% | viability, T/C [26]: 92.3% | viability, T/C [27]: 112% | viability, T/C [28]: 96.4% | viability, T/C [29]: 86.2% | viability, T/C [30]: 94.2% | viability, T/C [31]: 94.7% | viability, T/C [32]: 91.2% | viability, T/C [33]: 109% | viability, T/C [34]: 94.2% | viability, T/C [35]: 97.1% | viability, T/C [36]: 96.3%

IC50 (second compound 0.00316 µM): > 3 µM | IC50 (second compound 0.01 µM): > 3 µM | IC50 (second compound 0.0316 µM): > 3 µM | IC50 (second compound 0.1 µM): > 3 µM | IC50 (second compound 0.316 µM): > 3 µM | IC50 (second compound 1 µM): > 3 µM
SMILES: CCN1C(C(=O)NC23CCC(C(=O)O)(CC2)CC3)C(c2cccc(Cl)c2F)C2(C(=O)Nc3cc(Cl)ccc32)C12CCCCC2 (stereo not drawn) + CNC(C)C(=O)NC1CN(S(=O)(=O)c2cccc(S(=O)(=O)N3CCC4CCC(C(=O)NC(c5ccccc5)c5ccccc5)N4C(=O)C(NC(=O)C(C)NC)C3)c2)CCC2CCC(C(=O)NC(c3ccccc3)c3ccccc3)N2C1=O
viability, T/C (second compound 0.00316 µM, first compound 0.00949 µM): 103% | viability, T/C (second compound 0.00316 µM, first compound 0.03 µM): 97.6% | viability, T/C (second compound 0.00316 µM, first compound 0.0949 µM): 101% | viability, T/C (second compound 0.00316 µM, first compound 0.3 µM): 103% | viability, T/C (second compound 0.00316 µM, first compound 0.949 µM): 113% | viability, T/C (second compound 0.00316 µM, first compound 3 µM): 124% | viability, T/C (second compound 0.01 µM, first compound 0.00949 µM): 109% | viability, T/C (second compound 0.01 µM, first compound 0.03 µM): 92.5% | viability, T/C (second compound 0.01 µM, first compound 0.0949 µM): 98.2% | viability, T/C (second compound 0.01 µM, first compound 0.3 µM): 97.2% | viability, T/C (second compound 0.01 µM, first compound 0.949 µM): 106% | viability, T/C (second compound 0.01 µM, first compound 3 µM): 126% | viability, T/C (second compound 0.0316 µM, first compound 0.00949 µM): 97.2% | viability, T/C (second compound 0.0316 µM, first compound 0.03 µM): 99.6% | viability, T/C (second compound 0.0316 µM, first compound 0.0949 µM): 101% | viability, T/C (second compound 0.0316 µM, first compound 0.3 µM): 95.8% | viability, T/C (second compound 0.0316 µM, first compound 0.949 µM): 104% | viability, T/C (second compound 0.0316 µM, first compound 3 µM): 125% | viability, T/C (second compound 0.1 µM, first compound 0.00949 µM): 97.5% | viability, T/C (second compound 0.1 µM, first compound 0.03 µM): 99.3% | viability, T/C (second compound 0.1 µM, first compound 0.0949 µM): 96.7% | viability, T/C (second compound 0.1 µM, first compound 0.3 µM): 109% | viability, T/C (second compound 0.1 µM, first compound 0.949 µM): 105% | viability, T/C (second compound 0.1 µM, first compound 3 µM): 121% | viability, T/C (second compound 0.316 µM, first compound 0.00949 µM): 99.2% | viability, T/C (second compound 0.316 µM, first compound 0.03 µM): 102% | viability, T/C (second compound 0.316 µM, first compound 0.0949 µM): 106% | viability, T/C (second compound 0.316 µM, first compound 0.3 µM): 92.6% | viability, T/C (second compound 0.316 µM, first compound 0.949 µM): 103% | viability, T/C (second compound 0.316 µM, first compound 3 µM): 108% | viability, T/C (second compound 1 µM, first compound 0.00949 µM): 96.9% | viability, T/C (second compound 1 µM, first compound 0.03 µM): 103% | viability, T/C (second compound 1 µM, first compound 0.0949 µM): 98% | viability, T/C (second compound 1 µM, first compound 0.3 µM): 101% | viability, T/C (second compound 1 µM, first compound 0.949 µM): 116% | viability, T/C (second compound 1 µM, first compound 3 µM): 107%
